For one data set, the species on record is Mus musculus. The data set can be described thus: BBB penetration classification.
Conditions: not given
`C[C@H](CN1c2ccccc2Sc2ccccc21)N(C)C`: the Permeability entry is recorded as “Permeable”. As to `CCC(NC(=O)c1c(C)c(-c2ccccc2)nc2ccccc12)c1ccccc1` (stereo unspecified), the Permeability result is on record as “Permeable”. Regarding `CC(C)(C)c1ccc([C@@H](O)CCCN2CCC(C(O)(c3ccccc3)c3ccccc3)CC2)cc1`, the Permeability result is reported as “Impermeable”. Same read-out and setting: the entry for `O=C(Cc1ccc(Cl)c(Cl)c1)N1CCc2occc2[C@H]1CN1CC[C@H](O)C1` is “Permeable”; for `O=C(Cc1ccc(Cl)c(Cl)c1)N1CCCC[C@H]1CN1CCCC1` it is “Permeable”. On the same count and under the same terms, the entry for `O=C(Cc1ccc(Cl)c(Cl)c1)N1CCc2occc2[C@H]1CN1CC[C@@H](O)C1` (mixture of isomers) is “Permeable”; for `O=C(Cc1ccc(Cl)c(Cl)c1)N1CCc2occc2[C@@H]1CN1CC[C@H](O)C1` (racemic) it is “Permeable”; for `C[C@@H](CN1c2ccccc2Sc2ccccc21)N(C)C` [(S)-PROMETHAZINE] it is “Permeable”.

For the compound `COc1ccc(CCN2CCC(Nc3nc4ccccc4n3Cc3ccc(F)cc3)CC2)cc1` [ASTEMIZOLE], the Permeability entry is given as “Impermeable”.

For `Cn1c(=O)c2c(ncn2C)n(C)c1=O` [CAFFEINE], the Permeability entry is “Permeable”. Still for that read-out and setting: the entry for `CN(C)CCCN1c2ccccc2Sc2ccc(Cl)cc21` [CHLORPROMAZINE] is “Permeable”; for `CN/C(=N/CCSCc1nc[nH]c1C)NC#N` [CIMETIDINE] it is “Impermeable”. `Clc1cccc(Cl)c1N=C1NCCN1` [CLONIDINE]: the Permeability result is “Permeable”.

With `CNCCCN1c2ccccc2CCc2ccccc21` [DESIPRAMINE], the Permeability entry is on record as “Permeable”. Take `O=c1[nH]c2ccccc2n1CCCN1CCC(n2c(=O)[nH]c3cc(Cl)ccc32)CC1` [DOMPERIDONE]: the Permeability result was “Impermeable”. The same measure, in the same setting: next, `NCCc1ccc(O)c(O)c1` [DOPAMINE]: “Impermeable”; `CC(C)(C)c1ccc(C(=O)CCCN2CCC(OC(c3ccccc3)c3ccccc3)CC2)cc1` [EBASTINE]: “Impermeable”; `C[C@]12CC[C@@H]3c4ccc(O)cc4CC[C@H]3[C@@H]1CC[C@@H]2O` [ESTRADIOL]: “Permeable”. Still for that read-out and setting: the entry for `O=C1CC[C@@]2(O)[C@H]3Cc4ccc(O)c5c4[C@@]2(CCN3CC2CC2)[C@H]1O5` [NALTREXONE] is “Permeable”. Same read-out and setting: next, `CCn1cc(C(=O)O)c(=O)c2cc(F)c(N3CCNCC3)cc21` [NORFLOXACIN]: “Impermeable”. In the case of `OCCN1CCN(CCCN2c3ccccc3Sc3ccc(Cl)cc32)CC1` [PERPHENAZINE], the Permeability result is given as “Permeable”. Still for that read-out and setting: the entry for `CC(C)(C)c1ccc([C@H](O)CCCN2CCC(C(O)(c3ccccc3)c3ccccc3)CC2)cc1` [R-TERFENADINE] is “Impermeable”; for `CNC(=C[N+](=O)[O-])NCCSCc1ccc(CN(C)C)o1` [RANITIDINE] it is “Impermeable”; for `CCCC(C)C1(CC)C(=O)NC(=S)NC1=O` (stereo unspecified) [THIOPENTAL] it is “Permeable”.

`CSc1ccc2c(c1)N(CCC1CCCCN1C)c1ccccc1S2` (stereo unspecified) [THIORIDAZINE]: the Permeability entry is reported as “Permeable”.

Still in this data set, the particulars now being: in vivo.
Take `N[C@@H](Cc1ccc(O)c(O)c1)C(=O)O` [LEVODOPA]: the “BBB Impermeable” value is given as “Impermeable”.

Source of the values: ChEMBL document CHEMBL1133022, “Predicting blood-brain barrier permeation from three-dimensional molecular structure” (J Med Chem, 2000).
